The numbers were not newly measured in patent US20130142849A1 (LUPIN LIMITED, priority 2010, published 2013), which cites them from elsewhere.

Read-outs that look alike come from different tables or passages of the source.

`CCCCc1oc2ccc(NS(C)(=O)=O)cc2c1C(=O)c1ccc(OCCCN(CCCC)CCCC)cc1.Cl` [Dronedarone, N-{2-butyl-3-[4-(3-dibutylaminopropoxy)benzoyl]benzofuran-5-yl}methane sulfonamide, hydrochloride]: the absolute oral bioavailability entry reads like this: (administered with a high fat meal) “approx. 15%”; (fasting) 4%.
